Series [1] relates to LPS-induced NO production in the murine macrophage cell line (RAW 264.7 cells). Put plainly: Inhibition of LPS-induced NO production (Griess reagent). Particulars: Mus musculus, read-out: IC50 against LPS-induced NO production. The class given is cell-based. How it is done:
(§1) The nitrite/nitrate oxidized from NO was detected by the Griess reagent as previously reported with slight modifications. The murine macrophage cell line (RAW 264.7 cells) were seeded in 96-well plates at a density of 1 × 10^5 cells/well and preincubated for 12 h. The tested compounds were dissolved in dimethylsulfoxide (DMSO) and diluted with Dulbecco’s Modified Eagle Medium (DMEM) medium to a final concentration (final DMSO concentration <0.1% in all assays). Indomethacin was used as the positive control. Cells were stimulated with 1µg/mL of lipopolysaccharide (LPS, Sigma, St. Louis, MO, USA) with or without tested compounds for 24 h. Then culture supernatant was mixed with an equal volume of Griess reagent I and II (Beyotime, Shanghai, China), and measured at 540 nm using a microplate reader (Bio-Rad Laboratories, Inc., Kyoto, Japan). Cell viability was evaluated using MTT assay.
(In general: The Griess reaction detects nitrite, a stable product of nitric oxide.)

Series [2] in a line: Cytotoxicity / cell viability by MTT assay. The class given is cell-based, murine. As to conditions: mouse, RAW 264.7 cells, MTT assay. How it is done:
as §1
A general note: Tetrazolium dyes change colour on reduction, which living cells bring about.

The test system of the next series is RAW 264.7 cells. Put plainly: Cytotoxicity / cell viability by MTT assay. Particulars: CC50 (MTT) / IC50 (NO production). Type of series: cell-based, murine. The protocol:
as §1

Series [3] concerns inducible nitric oxide synthase (iNOS) mRNA. Put plainly: Real-time PCR, iNOS mRNA expression in LPS-stimulated RAW 264.7 cells. Type of series: cell-based, murine. Particulars: LPS (1 μg/mL) 12 h, 1 h pretreatment, 1, 2, 4 μM, RT-PCR. How it is done: (§2) Figure 4 RAW 264.7 murine macrophage cells were pre-incubated for 12h, and then cells were pretreated with compound 9 at the indicated concentration for 1 h and incubated with LPS (1 μg/mL) for 12h (real-time PCR). The effect of compound 9 on the mRNA expressions of inducible nitric oxide synthase (iNOS) (A), cyclooxygenase-2 (COX-2)(B), tumor necrosis factor (TNF)-α (C), interleukin (IL)-6 (D), and IL-1β (E) were detected by real-time PCR. The data represent the mean values ± SD of three experiments, * p < 0.05, ** p < 0.01 compared to LPS-treated group.
(§3) RAW264.7 cells were placed in a 6-well plate at a density of 1 × 10^6 cells/well and incubated for 12 h. Cultured cells were pretreated with compound 9 (1, 2, 4 μM/L) for 1 h and incubated with LPS (1 μg/mL) for 12 h. RNA was extracted with Trizol Reagent (Takara Bio Inc., Otsu, Japan) according to the manufacturer’s instructions, and cDNA was reverse transcribed from total RNA using a Superscript III system (Takara Bio Inc., Otsu, Japan). PCR amplification was carried out using PikoReal™ (Thermo Fisher Scientific, MA, US) and specific primers. The optimal conditions for PCR amplification of the cDNA were established by following the manufacturer’s instructions. Relative gene expression was calculated using the comparative Ct method (2^−ΔΔCt) with glyceraldehyde-3-phosphate dehydrogenase (GAPDH) as an internal control. […]
In general terms: Quantitative PCR measures a nucleic acid by following its amplification.

Series [4] deals with cyclooxygenase-2 (COX-2) mRNA. Put plainly: Real-time PCR, COX-2 mRNA expression in LPS-stimulated RAW 264.7 cells. Type of series: cell-based, murine. Particulars: LPS (1 μg/mL) 12 h, 1 h pretreatment, 1, 2, 4 μM, RT-PCR. The protocol:
as §2, §3

Series [5] relates to tumor necrosis factor (TNF)-α mRNA. Put plainly: Real-time PCR, TNF-α mRNA expression in LPS-stimulated RAW 264.7 cells. The class given is cell-based, murine. The protocol: as §2, §3
A further series concerns interleukin (IL)-1β mRNA. Put plainly: Real-time PCR, IL-1β mRNA expression in LPS-stimulated RAW 264.7 cells. The class given is cell-based, murine. How it is done: as §2, §3
In the next series the test system is IL-6 mRNA. Put plainly: Real-time PCR, IL-6 mRNA expression in LPS-stimulated RAW 264.7 cells. Type of series: cell-based, murine. How it is done:
as §2, §3

The mark [6] stands for this setting: RAW264.7, RAW 264.7 cells, LPS 1 µg/mL, 24 h, means ± SD, n = 3.
The mark [7] stands for this setting: RAW 264.7 macrophage cells, means ± SD, n = 3, read-out: CC50.
[8] abbreviates: 2.0 μM, compared with the control groups.
[9] abbreviates: LPS (1 μg/mL) 12 h, 1 h pretreatment, 1, 2, 4 μM, RT-PCR.
The mark [10] stands for this setting: RAW 264.7 macrophage cells, tested at 50 μM, read-out: CC50 (cytotoxicity, class symbol).

This note sets out measurements from paper PMC7037671, “Naphthoquinone Derivatives with Anti-Inflammatory Activity from Mangrove-Derived Endophytic Fungus Talaromyces sp. SK-S009” (Molecules, 2020).

SMILES strings stand for the structures. Where two headings read alike, the source gives them in different places.

One may read the IC50 as the concentration at which inhibition is half-maximal. For orientation: CC50 means the concentration giving 50% cytotoxicity. What is called melting point is the temperature of the solid-liquid transition.

On to `COC1=CC(=O)c2c(cc(OC)c(C(C)O)c2O)C1=O` (stereo not shown) [Compound 10, 5-hydroxy-6-(1-hydroxyethyl)-2,7-dimethoxy-1,4-naphthalenedione], for which the concentration for half-maximal inhibition (IC50) in [1] (setting [6]) is 7.5 ± 0.2 µM. Besides, in series [2] (setting [7]), the CC50 at 24 h amounted to 15.8 ± 0.4 µM. The “SI (selectivity index, CC50/IC50)” value in the series on RAW 264.7 cells is 2.1.
On to `COC1=CC(=O)c2c(cc(OC)c(C(C)OC(C)=O)c2O)C1=O` (stereo not shown) [Compound 9, 6-[1-(acetyloxy)ethyl]-5-hydroxy-2,7-dimethoxy-1,4-naphthalenedione], for which the IC50 in series [1] (setting [6]) is 1.7 ± 0.2 µM. In addition, in [2] (setting [7]), the cytotoxic concentration (CC50) at 24 h worked out at 50.3 ± 1.5 µM. In the series on RAW 264.7 cells, the “SI (selectivity index, CC50/IC50)” value stood at 29.6. Further, the “effect on iNOS mRNA expression” value in [3] is on record as “apparently reduced”. Also, the “effect on COX-2 mRNA expression” value in [4] was “apparently reduced”. Besides, the “inhibition of TNF-α mRNA expression” value in series [5] (setting [8]) is given as “about 80%”. The “effect on TNF-α mRNA expression” value in series [5] (setting [9]) is on record as “apparently reduced”. Moreover, the “inhibition of IL-1β mRNA expression” value with interleukin (IL)-1β mRNA (setting [8]) was “about 80%”. Moreover, in the series on interleukin (IL)-1β mRNA (setting [9]), the “effect on IL-1β mRNA expression” value is listed as “apparently reduced”. In the series with IL-6 mRNA (setting [8]), the “inhibition of IL-6 mRNA expression” value is reported as “about 80%”. Besides, in the series with IL-6 mRNA (setting [9]), the “effect on IL-6 mRNA expression” value was “apparently reduced”.
In the case of `COc1cc(O)c2c(c1)C(=O)C(C[C@H](C)O)=C(C)C2=O` [Compound 1, Talanaphthoquinone A], the IC50 in [1] (setting [6]) is 3.9 ± 0.5 µM. Also, the CC50 at 24 h in [2] (setting [7]) was found to be 30.7 ± 0.5 µM. For the same molecule, in the series with RAW 264.7 cells, the “SI (selectivity index, CC50/IC50)” value was found to be 7.9.
As for `COc1ccc2c(c1)c(CC(=O)O)c(C)n2C(=O)c1ccc(Cl)cc1` [Indomethacin, reference compound], in [1] (setting [6]), the half-inhibitory concentration (IC50) was found to be 26.3 ± 0.6 µM.
For the molecule `COC1=CC(=O)c2c(O)c(C)c3cc(C)oc3c2C1=O` [Compound 5, anhydrojavanicin], the IC50 in [1] (setting [6]) amounted to 11.2 ± 0.3 µM. In addition, in series [2] (setting [10]), the CC50 at 24 h was > 50 µM.
For `COC1=CC(=O)c2c(O)c(C)c(CC(C)O)c(O)c2C1=O` (stereo not shown) [Compound 11, solaniol], in series [1] (setting [6]), the half-inhibitory concentration (IC50) turned out to be 15.5 ± 0.6 µM. The half-maximal cytotoxic concentration (CC50) at 24 h in series [2] (means ± SD, n = 3, read-out: CC50) amounted to 59.2 ± 1.5 µM. Moreover, the “SI (selectivity index, CC50/IC50)” value in the series on RAW 264.7 cells amounted to 3.8.
For the molecule `COC1=CC(=O)c2c(O)c3c(c(O)c2C1=O)C=C(C)OC3` [Compound 6, anhydrofusarubin], in [1] (RAW264.7, 24 h), the half-maximal inhibitory concentration (IC50) was found to be 5.2 ± 0.1 µM. In addition, the CC50 at 24 h in series [2] (setting [10]) was > 50 µM.
Take `COC1=CC(=O)c2c(O)c(CO)c3c(c2C1=O)OC(C)C3` (stereo not shown) [Compound 4, 2,3-dihydro-5-hydroxy-4-hydroxymethyl-8-methoxy-2-methylnaphtho[1,2-b]furan-6,9-dione]: the IC50 in series [1] (setting [6]) is 22.6 ± 0.5 µM. Besides, the CC50 at 24 h in series [2] (setting [10]) is > 50 µM.
With `COC1=CC(=O)c2c(O)c(C)c(CC(C)=O)c(O)c2C1=O` [Compound 12, javanicin], in series [1] (setting [6]), the IC50 came out at 5.6 ± 0.3 µM. The CC50 at 24 h in [2] (setting [7]) amounted to 48.4 ± 1.3 µM. The “SI (selectivity index, CC50/IC50)” value with RAW 264.7 cells stood at 8.6.
With `CCc1c(OC)cc2c(c1O)C(=O)C=C(OC)C2=O` [Compound 8, 6-ethyl-2,7-dimethoxyjuglone], the half-inhibitory concentration (IC50) in series [1] (setting [6]) turned out to be 7.7 ± 0.3 µM. The 50% cytotoxic concentration (CC50) at 24 h in series [2] (setting [10]) is > 50 µM.
On to `COC1=CC(=O)c2c(O)c(C)c3c(c2C1=O)OC(CO)C3` (stereo not shown) [Compound 2, Talanaphthoquinone B], for which the melting point was in the range of 157.7 to 159.3 °C. Besides, the IC50 in series [1] (setting [6]) came out at 49.7 ± 1.5 µM. In addition, in series [2] (setting [10]), the cytotoxic concentration (CC50) at 24 h is > 50 µM.
Turning to `COC1=CC(=O)c2c(O)c(C)c3c(c2C1=O)OC(C)C3` (stereo not shown) [Compound 3, anhydrojavanicin], the half-maximal inhibitory concentration (IC50) in series [1] (setting [6]) turned out to be 16 ± 0.2 µM. Further, the 50% cytotoxic concentration (CC50) at 24 h in series [2] (tested at 50 μM, read-out: CC50 (cytotoxicity, class symbol)) is > 50 µM.
